SMILES strings stand for the structures.

Chain of Axl (P30530 26-894): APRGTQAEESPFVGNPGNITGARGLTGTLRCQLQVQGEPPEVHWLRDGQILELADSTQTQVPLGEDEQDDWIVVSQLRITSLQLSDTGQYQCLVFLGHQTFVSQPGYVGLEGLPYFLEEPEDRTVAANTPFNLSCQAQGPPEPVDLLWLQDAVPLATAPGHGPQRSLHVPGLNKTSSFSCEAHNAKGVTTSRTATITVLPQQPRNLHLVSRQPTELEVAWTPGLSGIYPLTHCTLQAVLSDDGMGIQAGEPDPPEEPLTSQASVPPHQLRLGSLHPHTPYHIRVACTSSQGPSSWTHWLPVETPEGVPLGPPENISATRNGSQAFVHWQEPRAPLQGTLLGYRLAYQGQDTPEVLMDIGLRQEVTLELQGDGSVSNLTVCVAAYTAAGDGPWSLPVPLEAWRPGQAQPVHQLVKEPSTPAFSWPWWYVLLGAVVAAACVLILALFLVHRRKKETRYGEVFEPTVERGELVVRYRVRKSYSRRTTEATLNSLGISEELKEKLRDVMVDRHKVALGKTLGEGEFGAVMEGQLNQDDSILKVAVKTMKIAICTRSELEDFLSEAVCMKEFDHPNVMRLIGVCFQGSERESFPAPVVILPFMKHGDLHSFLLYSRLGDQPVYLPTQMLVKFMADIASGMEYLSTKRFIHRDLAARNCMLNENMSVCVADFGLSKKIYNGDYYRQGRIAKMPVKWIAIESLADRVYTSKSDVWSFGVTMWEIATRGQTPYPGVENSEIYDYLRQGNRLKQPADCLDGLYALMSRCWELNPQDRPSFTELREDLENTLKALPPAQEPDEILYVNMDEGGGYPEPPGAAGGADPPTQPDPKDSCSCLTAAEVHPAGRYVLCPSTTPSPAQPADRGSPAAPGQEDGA

One assay has as its target Axl (Homo sapiens (Human), UniProt P30530). Put plainly: Phospho-Akt in-cell Western assay (Axl-antibody cross-linking stimulation). The class given is cell-based. The note with it: inhibition of Axl activity, Hela cells, phospho-Akt readout; Table 1, formula (Ia1). The method, boiled down: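 HeLa cells on poly-L-lysine, starved 24 hrs with Axl/Fc, pre-treated with compound 1 hr at 37° C., then stimulated 5 min with Axl primary/secondary antibody cluster. Fixed cells probed for phospho-Akt by chemiluminescent in-cell Western; signal normalized to crystal violet cell number.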
`Nc1nc(Nc2ccc(OCCN3CCCC3)cc2)nn1-c1nc(Cl)nc2cc(Cl)sc12` [Compound 175, 1-(2,6-dichlorothieno[3,2-d]pyrimidin-4-yl)-N^3-(4-(2-pyrrolidin-1-ylethoxy)phenyl)-1H-1,2,4-triazole-3,5-diamine] registered a half-inhibitory concentration (IC50) of less than 1000 nM.
Take `Nc1nc(Nc2ccc(OCCN3CCCC3)cc2)nn1-c1nc(Cl)nc2sccc12` [Compound 176, 1-(2-chlorothieno[2,3-d]pyrimidin-4-yl)-N^3-(4-(2-pyrrolidin-1-ylethoxy)phenyl)-1H-1,2,4-triazole-3,5-diamine]: the IC50 is less than 1000 nM.
`Nc1nc(Nc2ccc(OCCN3CCCC3)cc2)nn1-c1nc(Cl)nc2ccsc12` [Compound 177, 1-(2-chlorothieno[3,2-d]pyrimidin-4-yl)-N^3-(4-(2-pyrrolidin-1-ylethoxy)phenyl)-1H-1,2,4-triazole-3,5-diamine] returned an IC50 of less than 1000 nM.

The same assay, now with this note: inhibition of Axl activity, Hela cells, phospho-Akt readout; Table 5, formula (Ia3).
Compound `CN(C)[C@H]1CCN(c2ccc(Nc3nc(N)n(-c4nccc5ccccc45)n3)cc2)C1` [Compound 165, N^3-(4-((S)-3-(dimethylamino)pyrrolidin-1-yl)phenyl)-1-(isoquinolin-1-yl)-1H-1,2,4-triazole-3,5-diamine] gave an IC50 of less than 1000 nM.
The compound `Nc1nc(Nc2ccc(-c3cnco3)cc2)nn1-c1nccc2ccccc12` [Compound 166, 1-(isoquinolin-1-yl)-N^3-(4-(oxazol-5-yl)phenyl)-1H-1,2,4-triazole-3,5-diamine] registered an IC50 of more than 20000 nM.
Compound `CN1CCC(c2ccc(Nc3nc(N)n(-c4nccc5ccccc45)n3)cc2)CC1` [Compound 167, 1-(isoquinolin-1-yl)-N^3-(4-(1-methylpiperidin-4-yl)phenyl)-1H-1,2,4-triazole-3,5-diamine] returned an IC50 of less than 1000 nM.
Regarding `COc1cc2ncnc(-n3nc(Nc4ccc(C5CCN(C)CC5)cc4)nc3N)c2cc1OC` [Compound 168, 1-(6,7-dimethoxyquinazolin-4-yl)-N^3-(4-(1-methylpiperidin-4-yl)phenyl)-1H-1,2,4-triazole-3,5-diamine], the IC50 was less than 1000 nM.
Still for that read-out and setting: with `COc1cc2c(-n3nc(Nc4ccc(C5CCN(C)CC5)cc4)nc3N)ncnc2cc1O` [Compound 169, 4-(5-amino-3-(4-(1-methylpiperidin-4-yl)phenylamino)-1H-1,2,4-triazol-1-yl)-6-methoxyquinazolin-7-ol] the figure was less than 1000 nM; with `COc1cc2ncnc(-n3nc(Nc4ccc(N5CC[C@H](N(C)C)C5)cc4)nc3N)c2cc1OC` [Compound 171, 1-(6,7-dimethoxyquinazolin-4-yl)-N^3-(4-((S)-3-(dimethylamino)pyrrolidin-1-yl)phenyl)-1H-1,2,4-triazole-3,5-diamine], less than 1000 nM; with `COc1cc2ncnc(-n3nc(Nc4ccc(CN5CCN(C)CC5)cc4)nc3N)c2cc1OC` [Compound 173, 1-(6,7-dimethoxyquinazolin-4-yl)-N^3-(4-((4-methylpiperazin-1-yl)methyl)phenyl)-1H-1,2,4-triazole-3,5-diamine], less than 1000 nM.
Consider `COc1cc2ccnc(-n3nc(Nc4ccc(C5CCN(C)CC5)cc4)nc3N)c2cc1OC` [Compound 174, 1-(6,7-dimethoxyisoquinolin-1-yl)-N^3-(4-(1-methylpiperidin-4-yl)phenyl)-1H-1,2,4-triazole-3,5-diamine], for which the half-maximal inhibitory concentration (IC50) is less than 1000 nM.

Still in this assay, the particulars now being: inhibition of Axl activity, phospho-Akt in-cell Western assay.
`Nc1nc(Nc2ccc(N3CCN([C@H]4C[C@@H]5CC[C@H]4C5)CC3)cc2)nn1-c1nc(Cl)nc2ccsc12` [Compound 179, 1-(2-chlorothieno[3,2-d]pyrimidin-4-yl)-N^3-(4-(4-((1S,2S,4R)-bicyclo[2.2.1]heptan-2-yl)-piperazin-1-yl)phenyl)-1H-1,2,4-triazole-3,5-diamine] returned an IC50 of less than 1000 nM.
`COc1cc2cnc(-n3nc(Nc4ccc(N5CCN(C)CC5)cc4)nc3N)nc2cc1OC` [Compound 180, 1-(6,7-dimethoxyquinazolin-2-yl)-N^3-(4-(4-methylpiperazin-1-yl)phenyl)-1H-1,2,4-triazole-3,5-diamine] had an IC50 of less than 1000 nM.
The compound `COc1cc2cnc(-n3nc(Nc4ccc(N5CCN(C6CCCCC6)CC5)c(F)c4)nc3N)nc2cc1OC` [Compound 181, 1-(6,7-dimethoxyquinazolin-2-yl)-N^3-(3-fluoro-4-(4-cyclohexylpiperazin-1-yl)phenyl)-1H-1,2,4-triazole-3,5-diamine] registered a half-maximal inhibitory concentration (IC50) of less than 1000 nM.
Still for that read-out and setting: with `Nc1nc(Nc2ccc(N3CCN(C4CC5CCC4C5)CC3)cc2)nn1-c1ncnc2c1sc1ncccc12` (stereo not shown) [Compound 184, 1-(pyrido[2,3-b]pyrimido[4,5-d]thiophene-4-yl)-N^3-(4-(4-(bicyclo[2.2.1]heptan-2-yl)-piperazin-1-yl)phenyl)-1H-1,2,4-triazole-3,5-diamine] the figure was less than 1000 nM; with `Nc1nc(Nc2ccc(N3CCN(C4CC5CCC4C5)CC3)cc2)nn1-c1ncnc2scc(-c3cccs3)c12` (stereo not shown) [Compound 185, 1-(5-(thiophen-2-yl)thieno[2,3-d]pyrimidin-4-yl)-N^3-(4-(4-(bicyclo[2.2.1]heptan-2-yl)-piperazin-1-yl)phenyl)-1H-1,2,4-triazole-3,5-diamine], more than 20000 nM; with `Nc1nc(Nc2ccc(N3CCN(C4CC5CCC4C5)CC3)cc2)nn1-c1ncnc2cc(-c3ccc(Cl)cc3)sc12` (stereo not shown) [Compound 186, 1-(6-(4-chlorophenyl)thieno[3,2-d]pyrimidin-4-yl)-N^3-(4-(4-(bicyclo[2.2.1]heptan-2-yl)-piperazin-1-yl)phenyl)-1H-1,2,4-triazole-3,5-diamine], more than 20000 nM.
Compound `CC(C)(C)c1cc2ncnc(-n3nc(Nc4ccc(N5CCN(C6CC7CCC6C7)CC5)cc4)nc3N)c2s1` (stereo not shown) [Compound 187, 1-(6-(1,1-dimethylethyl)thieno[3,2-d]pyrimidin-4-yl)-N^3-(4-(4-(bicyclo[2.2.1]heptan-2-yl)-piperazin-1-yl)phenyl)-1H-1,2,4-triazole-3,5-diamine] came in with an IC50 of less than 1000 nM.
As for `Cc1csc2c(-n3nc(Nc4ccc(N5CCN([C@H]6C[C@@H]7CC[C@H]6C7)CC5)cc4)nc3N)ncnc12` [Compound 188, 1-(7-methylthieno[3,2-d]pyrimidin-4-yl)-N^3-(4-(4-((1S,2S,4R)-bicyclo[2.2.1]heptan-2-yl)-piperazin-1-yl)phenyl)-1H-1,2,4-triazole-3,5-diamine], the IC50 is less than 1000 nM.
The compound `Nc1nc(Nc2ccc(N3CCN([C@H]4C[C@@H]5CC[C@H]4C5)CC3)cc2)nn1-c1ncnc2ccsc12` [Compound 189, 1-(thieno[3,2-d]pyrimidin-4-yl)-N^3-(4-(4-((1S,2S,4R)-bicyclo[2.2.1]heptan-2-yl)-piperazin-1-yl)phenyl)-1H-1,2,4-triazole-3,5-diamine] gave a 50% inhibitory concentration (IC50) of less than 1000 nM.
Still for that read-out and setting: with `Nc1nc(Nc2ccc(N3CCN([C@H]4C[C@@H]5CC[C@H]4C5)CC3)cc2)nn1-c1ncnc2sccc12` [Compound 190, 1-(thieno[2,3-d]pyrimidin-4-yl)-N^3-(4-(4-((1S,2S,4R)-bicyclo[2.2.1]heptan-2-yl)-piperazin-1-yl)phenyl)-1H-1,2,4-triazole-3,5-diamine] the figure was less than 1000 nM; with `Cc1csc2ncnc(-n3nc(Nc4ccc(N5CCN([C@H]6C[C@@H]7CC[C@H]6C7)CC5)cc4)nc3N)c12` [Compound 191, 1-(5-methylthieno[2,3-d]pyrimidin-4-yl)-N^3-(4-(4-((1S,2S,4R)-bicyclo[2.2.1]heptan-2-yl)-piperazin-1-yl)phenyl)-1H-1,2,4-triazole-3,5-diamine], 1000 to 10000 nM.

The values above are taken from patent US10166216B2 (Rigel Pharmaceuticals, Inc., priority 2006, dated 2019).
